The structures appear in SMILES notation.

The target of the assay is T1, human full-length recombinant PKC βII (Homo sapiens, UniProt P05771).
T1 construct: Active human full-length recombinant PKC βII; purchased Invitrogen GmbH, Darmstadt, Germany
T1 sequence (P05771 1-673 isoform P05771-2): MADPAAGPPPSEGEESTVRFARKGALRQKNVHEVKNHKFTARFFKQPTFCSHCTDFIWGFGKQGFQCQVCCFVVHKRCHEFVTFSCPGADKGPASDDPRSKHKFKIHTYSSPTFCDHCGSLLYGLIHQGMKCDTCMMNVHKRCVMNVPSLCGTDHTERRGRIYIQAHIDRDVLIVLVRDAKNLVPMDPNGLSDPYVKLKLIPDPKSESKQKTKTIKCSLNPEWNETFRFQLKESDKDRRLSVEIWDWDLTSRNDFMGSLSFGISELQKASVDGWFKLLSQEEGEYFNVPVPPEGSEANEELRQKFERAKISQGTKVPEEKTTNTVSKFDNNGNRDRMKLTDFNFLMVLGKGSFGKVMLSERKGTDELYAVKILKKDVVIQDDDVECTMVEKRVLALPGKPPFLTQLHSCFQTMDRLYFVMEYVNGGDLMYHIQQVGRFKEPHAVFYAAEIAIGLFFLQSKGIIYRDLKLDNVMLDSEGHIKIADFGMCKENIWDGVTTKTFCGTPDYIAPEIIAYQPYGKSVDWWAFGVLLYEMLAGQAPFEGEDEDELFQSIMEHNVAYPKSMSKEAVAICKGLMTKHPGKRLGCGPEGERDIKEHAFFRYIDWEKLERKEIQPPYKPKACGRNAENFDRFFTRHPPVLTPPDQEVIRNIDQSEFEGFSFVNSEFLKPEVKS
The experiment in a line: Determination of PKC βII inhibition (Caliper mobility shift kinase assay). Type of assay: biochemical. To be noted: final compound concentration 1.14 μM (±0.15 μM); 60 min incubation at 32° C. The procedure: Determination of PKC βII Inhibition
PKC βII inhibition was determined according to the following protocol:
Active human full-length recombinant PKC βII and the peptide substrate, Fluorescein-RFARKGSLRQKNV, were purchased from Invitrogen GmbH, Darmstadt, Germany. Adenosine-5′-triphosphate (ATP), bovine serum albumine (BSA), dimethylsulphoxide (DMSO), 4-(2-hydroxyethyl)piperazine-1-ethanesulfonic acid (Hepes), Triton X-100, 1,2-Dioleoyl-sn-glycerol (DAG), L-α-Phosphatidyl-L-serine (PS), calcium chloride (CaCl2), and Pluronic F-68 were purchased from Sigma-Aldrich, Munich, Germany. Magnesium chloride, 1 M sodium hydroxide solution, 1M hydrochloric acid solution and EDTA were obtained from Merck Biosciences, Darmstadt, Germany.
Test compounds were diluted to three times the test concentration in buffer 1 (30 mM Hepes-NaOH, pH 7.4, 0.01% Pluronic F-68 and 3% (v/v) DMSO). The […] enzyme was diluted to a concentration of 30 ng/ml in buffer 2 (30 mM Hepes-NaOH, pH 7.4, 15 mM MgCl2, 150 μM CaCl2, 150 μg/ml PS, 60 μg/ml DAG, and 0.045% (w/v) Triton X-100). The peptide substrate and ATP were diluted to concentrations of 3 μM and 120 μM, respectively, in buffer 2. Two μl of the compound solution were mixed with 2 μl of the diluted enzyme in a 384-well small volume microtiter plate (Greiner, Bio-One, Frickenhausen, Germany), and the kinase reaction was initiated by addition of 2 μl of the solution containing peptide substrate and ATP. After 60 min incubation at 32° C., the reaction was stopped by addition of 20 μl of a solution containing 130 mM Hepes-NaOH, pH 7.4, 0.0195% (v/v) Brij-35, 6.5 mM EDTA, 0.13% chip coating reagent 3 (Caliper Lifescience Inc, Hopkinton, Mass.) and 6.5% (v/v) DMSO. Phosphorylation of the substrate peptide was then detected on a Caliper 3000 instrument essentially as described by Pommereau et al (J. Biomol. Screening 2004, 9(5), 409-416). Separation conditions were as follows: Pressure −0.8 psi, upstream voltage −3000 V, downstream voltage −800 V. Positive controls (buffer 1 instead of compound) and negative controls (buffer 1 instead of compound and buffer 2 instead of kinase solution) were run in parallel on each plate. Fractional turnover (R) was determined as the height of the peak of the phosphorylated peptide product divided by the sum of the unphosphorylated substrate and phosphorylated product peak heights. Percent-inhibition values for the test compounds were determined using the formula % Inhibition=100*(1−(Rcompound−Rnegative control)/(Rpositive control−Rnegative control).
In the following table % inhibition values observed with example compounds at a final concentration of 1.14 μM (±0.15 μM) are listed: […]
On to `Cc1n[nH]c2nc(-c3ccc(O)cc3F)cc(CN3CC(C)(C)NCC3(C)C3CC3)c12` (centres unmarked) [Example 34, 4-[4-(2-Cyclopropyl-2,5,5-trimethyl-piperazin-1-ylmethyl)-3-methyl-1H-pyrazolo[3,4-b]pyridin-6-yl]-3-fluoro-phenol], for which the inhibition at 1.14 µM is 73%. Consider `Cc1n[nH]c2nc(-c3ccc(O)cc3F)cc(CN3CC(C)(C)NC[C@H]3C(C)C)c12` [Example 134, 3-Fluoro-4-[4-((R)-2-isopropyl-5,5-dimethyl-piperazin-1-ylmethyl)-3-methyl-1H-pyrazolo[3,4-b]pyridin-6-yl]-phenol], for which the inhibition at 1.14 µM came to 102%. `CC[C@]1(C)CNC(C)(C)CN1Cc1cc(-c2ccc(O)cc2F)nc2[nH]nc(C)c12` [Example 121, 4-[4-((R)-2-Ethyl-2,5,5-trimethyl-piperazin-1-ylmethyl)-3-methyl-1H-pyrazolo[3,4-b]pyridin-6-yl]-3-fluoro-phenol]: the inhibition at 1.14 µM was found to be 100%. With `Cc1n[nH]c2nc(-c3ccc(O)cc3F)cc(CN3CC4(CCCC4)NCC3C)c12` (centres unmarked) [Example 35, 3-Fluoro-4-[3-methyl-4-(8-methyl-6,9-diaza-spiro[4.5]dec-9-ylmethyl)-1H-pyrazolo[3,4-b]pyridin-6-yl]-phenol], the inhibition at 1.14 µM was 78%. As for `Cc1n[nH]c2nc(-c3ccc(O)cc3F)cc(CN3CC(C)(C)NC[C@H]3C)c12` [Example 123, 3-Fluoro-4-[3-methyl-4-((R)-2,5,5-trimethyl-piperazin-1-ylmethyl)-1H-pyrazolo[3,4-b]pyridin-6-yl]-phenol], the figure is 88%; as for `Cc1n[nH]c2nc(-c3ccc(O)cc3F)cc(CN3CCNC[C@@H]3C(F)(F)F)c12` [Example 107, 3-Fluoro-4-[3-methyl-4-((R)-2-trifluoromethyl-piperazin-1-ylmethyl)-1H-pyrazolo[3,4-b]pyridin-6-yl]-phenol], 101%; as for `Cc1n[nH]c2nc(-c3ccc(O)cc3F)cc(CN3CCNCC3c3cccc(C(F)(F)F)c3)c12` (centres unmarked) [Example 8, 3-Fluoro-4-{3-methyl-4-[2-(3-trifluoromethyl-phenyl)-piperazin-1-ylmethyl]-1H-pyrazolo[3,4-b]pyridin-6-yl}-phenol], 92%. Regarding `Cc1n[nH]c2nc(-c3ccc(O)cc3F)cc(CN3CCNCC3c3ccc(C(F)(F)F)cc3)c12` (centres unmarked) [Example 3], the inhibition at 1.14 µM worked out at 68%.

For `CCNC(=O)N1CCCN(Cc2cc(-c3ccc(O)cc3F)nc3[nH]nc(C)c23)CC1C` (centres unmarked) [Example 89, 4-[6-(2-Fluoro-4-hydroxy-phenyl)-3-methyl-1H-pyrazolo[3,4-b]pyridin-4-ylmethyl]-2-methyl-[1,4]diazepane-1-carboxylic acid ethylamide], the inhibition at 1.14 µM amounted to 76%. Turning to `COCCCN1CC(C)(C)N(Cc2cc(-c3ccc(O)cc3)nc3[nH]nc(C)c23)CC1C` (centres unmarked) [Example 64, 4-{4-[4-(3-Methoxy-propyl)-2,2,5-trimethyl-piperazin-1-ylmethyl]-3-methyl-1H-pyrazolo[3,4-b]pyridin-6-yl}-phenol], the inhibition at 1.14 µM turned out to be 94%. `Cc1n[nH]c2nc(-c3ccc(O)cc3F)cc(CN3CCNC[C@@H]3c3ccccc3)c12` [Example 109, 3-Fluoro-4-[3-methyl-4-((S)-2-phenyl-piperazin-1-ylmethyl)-1H-pyrazolo[3,4-b]pyridin-6-yl]-phenol]: the inhibition at 1.14 µM amounted to 91%. As for `Cc1n[nH]c2nc(-c3ccc(O)cc3)cc(CN3CC(C)(C)N(CCC(F)(F)F)CC3(C)C)c12` [Example 83, 4-{3-Methyl-4-[2,2,5,5-tetramethyl-4-(3,3,3-trifluoro-propyl)-piperazin-1-ylmethyl]-1H-pyrazolo[3,4-b]pyridin-6-yl}-phenol], the inhibition at 1.14 µM was 69%.

In the case of `Cc1n[nH]c2nc(-c3ccc(O)cc3)cc(CN3CCNC[C@H]3CC(F)(F)F)c12` [Example 92, 4-{3-Methyl-4-[(R)-2-(2,2,2-trifluoro-ethyl)-piperazin-1-ylmethyl]-1H-pyrazolo[3,4-b]pyridin-6-yl}-phenol], the inhibition at 1.14 µM was determined as 99%.

On to `Cc1n[nH]c2nc(-c3ccc(O)cc3F)cc(CN3CCNC[C@@H]3c3ccc(C(F)(F)F)cc3)c12` [Example 103, 3-Fluoro-4-{3-methyl-4-[(S)-2-(4-trifluoromethyl-phenyl)-piperazin-1-ylmethyl]-1H-pyrazolo[3,4-b]pyridin-6-yl}-phenol], for which the inhibition at 1.14 µM came out at 53%. Turning to `Cc1n[nH]c2nc(-c3ccc(O)cc3F)cc(CN3CCNCC34CCC4)c12` [Example 17, 4-[4-(5,8-Diaza-spiro[3.5]non-5-ylmethyl)-3-methyl-1H-pyrazolo[3,4-b]pyridin-6-yl]-3-fluoro-phenol], the inhibition at 1.14 µM amounted to 98%. In the case of `Cc1n[nH]c2nc(-c3ccc(O)cc3F)cc(CN3C[C@@H](C)NC[C@@H]3C(F)(F)F)c12` [Example 152, 3-Fluoro-4-[3-methyl-4-((2R,5R)-5-methyl-2-trifluoromethyl-piperazin-1-ylmethyl)-1H-pyrazolo[3,4-b]pyridin-6-yl]-phenol], the inhibition at 1.14 µM was 93%. Consider `Cc1n[nH]c2nc(-c3ccc(O)cc3F)cc(CN3CCNCC3c3ccccc3F)c12` (centres unmarked) [Example 10, 3-Fluoro-4-{4-[2-(2-fluoro-phenyl)-piperazin-1-ylmethyl]-3-methyl-1H-pyrazolo[3,4-b]pyridin-6-yl}-phenol], for which the inhibition at 1.14 µM is 102%.

Regarding `Cc1n[nH]c2nc(-c3ccc(O)cc3F)cc(CN3CC(C)(C)N(C(=O)CO)CC3(C)C)c12` [Example 80, 1-{4-[6-(2-Fluoro-4-hydroxy-phenyl)-3-methyl-1H-pyrazolo[3,4-b]pyridin-4-ylmethyl]-2,2,5,5-tetramethyl-piperazin-1-yl}-2-hydroxy-ethanone], the inhibition at 1.14 µM worked out at 93%. As for `Cc1n[nH]c2nc(-c3ccc(O)cc3)cc(CNC3CCNCC3(C)C)c12` (centres unmarked) [Example 60, 4-{4-[(3,3-Dimethyl-piperidin-4-ylamino)-methyl]-3-methyl-1H-pyrazolo[3,4-b]pyridin-6-yl}-phenol], the inhibition at 1.14 µM stood at 92%. As to `COCC(=O)N1CC(C)N(Cc2cc(-c3ccc(O)cc3)nc3[nH]nc(C)c23)CC12CCCC2` (centres unmarked) [Example 82, 1-{9-[6-(4-Hydroxy-phenyl)-3-methyl-1H-pyrazolo[3,4-b]pyridin-4-ylmethyl]-8-methyl-6,9-diaza-spiro[4.5]dec-6-yl}-2-methoxy-ethanone], the inhibition at 1.14 µM was 85%. Turning to `Cc1n[nH]c2nc(-c3ccc(O)cc3F)cc(CN3CC(C(C)C)NCC3(C)C)c12` (centres unmarked) [Example 20, 3-Fluoro-4-[4-(5-isopropyl-2,2-dimethyl-piperazin-1-ylmethyl)-3-methyl-1H-pyrazolo[3,4-b]pyridin-6-yl]-phenol], the inhibition at 1.14 µM came out at 98%.

In the case of `Cc1n[nH]c2nc(-c3ccc(O)cc3F)cc(CN3CCNC(C)(C)C3)c12` [Example 55, 4-[4-(3,3-Dimethyl-piperazin-1-ylmethyl)-3-methyl-1H-pyrazolo[3,4-b]pyridin-6-yl]-3-fluoro-phenol], the inhibition at 1.14 µM was determined as 86%.

With `Cc1n[nH]c2nc(-c3ccc(O)cc3)cc(CN3C[C@@H](C)NCC3(C)C)c12` [Example 132, 4-[3-Methyl-4-((R)-2,2,5-trimethyl-piperazin-1-ylmethyl)-1H-pyrazolo[3,4-b]pyridin-6-yl]-phenol], the inhibition at 1.14 µM stood at 97%. `Cc1n[nH]c2nc(-c3ccc(O)cc3)cc(CN3CC(C)(C)NCC3C)c12` (centres unmarked) [Example 52, 4-[3-Methyl-4-(2,5,5-trimethyl-piperazin-1-ylmethyl)-1H-pyrazolo[3,4-b]pyridin-6-yl]-phenol]: the inhibition at 1.14 µM was 91%. With `Cc1n[nH]c2nc(-c3ccc(O)cc3)cc(CN3CC(C)NCC3(C)C)c12` (centres unmarked) [Example 48, 4-[3-Methyl-4-(2,2,5-trimethyl-piperazin-1-ylmethyl)-1H-pyrazolo-[3,4-b]pyridin-6-yl]-phenol], the inhibition at 1.14 µM worked out at 99%. The figure for `CC[C@@]1(C)CN(Cc2cc(-c3ccc(O)cc3F)nc3[nH]nc(C)c23)C(C)(C)CN1` [Example 136, 4-[4-((S)-5-Ethyl-2,2,5-trimethyl-piperazin-1-ylmethyl)-3-methyl-1H-pyrazolo[3,4-b]pyridin-6-yl]-3-fluoro-phenol] is 104%.

One may read the inhibition as the drop in the measured response relative to a control, in per cent.

The record behind these values is US9133181B2, “Substituted 6-(4-hydroxy-phenyl)-1H-pyrazolo[3,4-b]pyridine derivatives as kinase inhibitors” (SANOFI, priority 2012, dated 2015).
